Tested on: IFNα-Induced STAT Phosphorylation in Human Whole Blood
Assay: IFNα-Induced STAT Phosphorylation in Human Whole Blood
Type: cell-based
Conditions: 1 h incubation with compound, 1000 U/mL recombinant human IFNα A/D for 15 min, pSTAT5 (pY694) median fluorescence intensity in CD3 positive population, read-out: hWB IC50
Protocol: IFNα-Induced STAT Phosphorylation in Human Whole Blood
After an hour long incubation with compound, human whole blood (drawn with either EDTA or ACD-A as anti-coagulant) was stimulated with 1000 U/mL recombinant human IFNα A/D (R&D Systems 11200-2) for 15 min. The stimulation was stopped by adding Fix/Lyse buffer (BD 558049). Cells were stained with a CD3 FITC antibody (BD 555916), washed, and permeabilized on ice using Perm III buffer (BD 558050). […] The amount of pSTAT5 expression was quantitated by median fluorescence intensity after gating on the CD3 positive population.
IFNα-Induced STAT Phosphorylation in Human Whole Blood Inhibition Data

Compound	IC50 [nM]
[2H]C([2H])([2H])NC(=O)c1nnc(NC(=O)C2CC2)cc1Nc1cccc(-c2ncc(C(=O)N(C)C3CC3)cn2)c1OC [Example 52, 6-(cyclopropanecarboxamido)-4-((3-(5-(cyclopropyl(methyl)carbamoyl)pyrimidin-2-yl)-2-methoxyphenyl)amino)-N-(methyl-d3)pyridazine-3-carboxamide]	50
[2H]C([2H])([2H])NC(=O)c1nnc(NC(=O)C2CC2)cc1Nc1cccc(-c2ncc(C(=O)N(C)CC)cn2)c1OC [Example 50, 6-(Cyclopropanecarboxamido)-4-((3-(5-(ethyl(methyl)carbamoyl)pyrimidin-2-yl)-2-methoxyphenyl)amino)-N-(methyl-d3)pyridazine-3-carboxamide]	41
[2H]C([2H])([2H])NC(=O)c1nnc(NC(=O)C2CC2)cc1Nc1cccc(-c2ncc(C(=O)N3CCCC3)cn2)c1OC [Example 47, 6-(cyclopropanecarboxamido)-4-((2-methoxy-3-(5-(pyrrolidine-1-carbonyl)pyrimidin-2-yl)phenyl)amino)-N-(methyl-d3)pyridazine-3-carboxamide]	126
[2H]C([2H])([2H])NC(=O)c1nnc(NC(=O)C2CC2)cc1Nc1cc(F)cc(-c2ccc(C(C)(C)O)nn2)c1OC [Example 22, 6-(cyclopropanecarboxamido)-4-((5-fluoro-3-(6-(2-hydroxypropan-2-yl)pyridazin-3-yl)-2-methoxyphenyl)amino)-N-(methyl-d3)pyridazine-3-carboxamide]	120
[2H]C([2H])([2H])NC(=O)c1nnc(Nc2cnn(CC)n2)cc1Nc1cccc(-c2ncccn2)c1OC [Example 86, 6-((2-ethyl-2H-1,2,3-triazol-4-yl)amino)-4-((2-methoxy-3-(pyrimidin-2-yl)phenyl)amino)-N-(methyl-d3)pyridazine-3-carboxamide]	96
[2H]C([2H])([2H])NC(=O)c1nnc(Nc2cc(C(=O)N(C)C)n(C)n2)cc1Nc1cccc(-c2ncc(F)cn2)c1OC [Example 85, 6-((5-(dimethylcarbamoyl)-1-methyl-1H-pyrazol-3-yl)amino)-4-((3-(5-fluoropyrimidin-2-yl)-2-methoxyphenyl)amino)-N-(methyl-d3)pyridazine-3-carboxamide]	43
[2H]C([2H])([2H])NC(=O)c1cnc(Nc2cc(Cl)n(C)n2)cc1Nc1cccc(-c2ncc(F)cn2)c1OC [Example 66, 6-((5-chloro-1-methyl-1H-pyrazol-3-yl)amino)-4-((3-(5-fluoropyrimidin-2-yl)-2-methoxyphenyl)amino)-N-(methyl-d3)nicotinamide]	146
[2H]C([2H])([2H])NC(=O)c1nnc(Nc2cn(C)nn2)cc1Nc1cc(F)cc(-c2ncccn2)c1OC [Example 93, 4-((5-fluoro-2-methoxy-3-(pyrimidin-2-yl)phenyl)amino)-N-(methyl-d3)-6-((1-methyl-1H-1,2,3-triazol-4-yl)amino)pyridazine-3-carboxamide]	413
[2H]C([2H])([2H])NC(=O)c1nnc(Nc2cc3ccccc3nn2)cc1Nc1cccc(-c2ncc(F)cn2)c1OC [Example 100, 6-(cinnolin-3-ylamino)-4-((3-(5-fluoropyrimidin-2-yl)-2-methoxyphenyl)amino)-N-(methyl-d3)pyridazine-3-carboxamide]	165
[2H]C([2H])([2H])NC(=O)c1nnc(Nc2cnn(CC)n2)cc1Nc1cccc(-c2ncc(F)cn2)c1OC [Example 87, 6-((2-ethyl-2H-1,2,3-triazol-4-yl)amino)-4-((3-(5-fluoropyrimidin-2-yl)-2-methoxyphenyl)amino)-N-(methyl-d3)pyridazine-3-carboxamide]	343
[2H]C([2H])([2H])NC(=O)c1cnc(Nc2cc(C(F)(F)F)n(C)n2)cc1Nc1cccc(-c2ncc(F)cn2)c1OC [Example 64, 4-((3-(5-fluoropyrimidin-2-yl)-2-methoxyphenyl)amino)-N-(methyl-d3)-6-((1-methyl-5-(trifluoromethyl)-1H-pyrazol-3-yl)amino)nicotinamide]	75

Source: patent US12479831B2, “Substituted N(-methyl-D3)pyridazine-3-carboxamide or M-(methyl-D3)-nicotinamide compounds as IL-12, IL-23 and/or IFNα modulators” (BRISTOL-MYERS SQUIBB COMPANY, priority 2020, dated 2025)
